This note sets out measurements from patent publication US12692249B2, “WDR5 inhibitors and modulators” (Vanderbilt University, priority 2019, dated 2026).

The test system of the test is MV4:11 human cancer cell lines. In words: Cellular viability / anti-proliferative assay, CellTiter-Glo, 5 day protocol. It is filed as cell-based. Conditions: Homo sapiens, MV4-11, 120 h, MV4:11 cells; 5 day incubation; CellTiter-Glo; mean of at least two replicates; read-out: GI50 on cellular proliferation of MV4:11 human cancer cell lines. On the procedure:
Cellular Viability of Human Tumor Cell Lines
Anti-proliferative activity using MLL-harboring cell lines. MV-4-11 and K562 cells are grown in IMDM media supplemented with 10% FBS and 1% penicillin/streptomycin, Molm-13 cells are cultured in RPMI-1640 media supplemented with 10% FBS and 1% penicillin/streptomycin. Viability assays are performed by dispensing 200 cells at 7200 cells/mL into each well of an opaque 384-well plate and adding compounds at the indicated concentrations in a final volume, of 32 μL. and a final concentration of DMSO of 0.3% for all samples. A certain range of compound concentrations is made through a series of 2-fold dilutions starting 30 μM at the highest, total 22 dilutions. After a set incubation period, 5 day protocol, the viability of cells in each well is assessed using the CellTiter-Glo assay (Promega), read on a 96 Microplane Luminometer (Cytation 3, BioTek). Serial dilutions of each cell type are performed in all assays to generate standard curves and the final densities of cells are determined within the dynamic range of the instrument. GI50 values are calculated based on XLfit software (IDBS, Guildford, UK) with Sigmoidal Dose-Response Model. Each compound is tested in minimum of two replicates. Data are expressed as mean.
Background: In ATP-based viability assays light output follows the ATP content of the culture.
For the compound `COc1ccc2nc(C)cc(N3CCc4c(cc(Cn5ccnc5)cc4-c4cn(C)nc4C(F)(F)F)C3=O)c2c1` [Example 14, 7-((1H-Imidazol-1-yl)methyl)-2-(6-methoxy-2-methylquinolin-4-yl)-5-(1-methyl-3-(trifluoromethyl)-1H-pyrazol-4-yl)-3,4-dihydroisoquinolin-1(2H)-one], the GI50 turned out to be 44 nM.
For `COc1cc(N2CCN(C(C)=O)CC2)c2nccc(N3CCc4c(cc(Cn5ccnc5)cc4-c4cn(C)nc4C(F)(F)F)C3=O)c2c1` [Example 32, 7-((1H-imidazol-1-yl)methyl)-2-(8-(4-acetylpiperazin-1-yl)-6-methoxyquinolin-4-yl)-5-(1-methyl-3-(trifluoromethyl)-1H-pyrazol-4-yl)-3,4-dihydroisoquinolin-1(2H)-one] the value was < 20 nM; for `COc1cc(N2CCN(C)C(=O)C2)c2nccc(N3CCc4c(cc(Cn5ccnc5)cc4-c4cn(C)nc4C(F)(F)F)C3=O)c2c1` [Example 33, 7-((1H-Imidazol-1-yl)methyl)-2-(6-methoxy-8-(4-methyl-3-oxopiperazin-1-yl)quinolin-4-yl)-5-(1-methyl-3-(trifluoromethyl)-1H-pyrazol-4-yl)-3,4-dihydroisoquinolin-1(2H)-one], < 20 nM; for `CCc1cc(Br)c2nccc(N3CCc4c(cc(Cn5ccnc5)cc4-c4cn(C)nc4C(F)(F)F)C3=O)c2c1` [Example 34, 7-((1H-imidazol-1-yl)methyl)-2-(8-bromo-6-ethylquinolin-4-yl)-5-(1-methyl-3-(trifluoromethyl)-1H-pyrazol-4-yl)-3,4-dihydroisoquinolin-1(2H)-one], < 20 nM.
With `COc1cc(C(=O)O)c2nccc(N3CCc4c(cc(Cn5ccnc5)cc4-c4cn(C)nc4C(F)(F)F)C3=O)c2c1` [Example 40, 4-(7-((1H-Imidazol-1-yl)methyl)-5-(1-methyl-3-(trifluoromethyl)-1H-pyrazol-4-yl)-1-oxo-3,4-dihydroisoquinolin-2(1H)-yl)-6-methoxyquinoline-8-carboxylic acid] the figure was 291 nM; with `COc1cc(C(N)=O)c2nccc(N3CCc4c(cc(Cn5ccnc5)cc4-c4cn(C)nc4C(F)(F)F)C3=O)c2c1` [Example 41, 4-(7-((1H-Imidazol-1-yl)methyl)-5-(1-methyl-3-(trifluoromethyl)-1H-pyrazol-4-yl)-1-oxo-3,4-dihydroisoquinolin-2(1H)-yl)-6-methoxyquinoline-8-carboxamide], 24 nM; with `COc1cc(C(=O)N2CCN(C)CC2)c2nccc(N3CCc4c(cc(Cn5ccnc5)cc4-c4cn(C)nc4C(F)(F)F)C3=O)c2c1` [Example 43, 7-((1H-Imidazol-1-yl)methyl)-2-(6-methoxy-8-(4-methylpiperazine-1-carbonyl)quinolin-4-yl)-5-(1-methyl-3-(trifluoromethyl)-1H-pyrazol-4-yl)-3,4-dihydroisoquinolin-1(2H)-one], 563 nM.
With `COc1cc(C(=O)N(C)C)c2nccc(N3CCc4c(cc(Cn5ccnc5)cc4-c4cn(C)nc4C(F)(F)F)C3=O)c2c1` [Example 45, 4-(7-((1H-Imidazol-1-yl)methyl)-5-(1-methyl-3-(trifluoromethyl)-1H-pyrazol-4-yl)-1-oxo-3,4-dihydroisoquinolin-2(1H)-yl)-6-methoxy-N,N-dimethylquinoline-8-carboxamide] the figure was 326 nM; with `COc1cc(C(=O)N2CCOCC2)c2nccc(N3CCc4c(cc(Cn5ccnc5)cc4-c4cn(C)nc4C(F)(F)F)C3=O)c2c1` [Example 46, 7-((1H-Imidazol-1-yl)methyl)-2-(6-methoxy-8-(morpholine-4-carbonyl)quinolin-4-yl)-5-(1-methyl-3-(trifluoromethyl)-1H-pyrazol-4-yl)-3,4-dihydroisoquinolin-1(2H)-one], 444 nM; with `COc1cc(C(=O)NC(C)C)c2nccc(N3CCc4c(cc(Cn5ccnc5)cc4-c4cn(C)nc4C(F)(F)F)C3=O)c2c1` [Example 47, 4-(7-((1H-Imidazol-1-yl)methyl)-5-(1-methyl-3-(trifluoromethyl)-1H-pyrazol-4-yl)-1-oxo-3,4-dihydroisoquinolin-2(1H)-yl)-N-isopropyl-6-methoxyquinoline-8-carboxamide], 54 nM.
On to `CCCCNC(=O)c1cc(OC)cc2c(N3CCc4c(cc(Cn5ccnc5)cc4-c4cn(C)nc4C(F)(F)F)C3=O)ccnc12` [Example 48, 4-(7-((1H-Imidazol-1-yl)methyl)-5-(1-methyl-3-(trifluoromethyl)-1H-pyrazol-4-yl)-1-oxo-3,4-dihydroisoquinolin-2(1H)-yl)-N-butyl-6-methoxyquinoline-8-carboxamide], for which the GI50 turned out to be 119 nM.
`CCOC(=O)c1cc(CC)cc2c(N3CCc4c(cc(Cn5ccnc5)cc4-c4cn(C)nc4C(F)(F)F)C3=O)ccnc12` [Example 91, Ethyl 4-(7-((1H-imidazol-1-yl)methyl)-5-(1-methyl-3-(trifluoromethyl)-1H-pyrazol-4-yl)-1-oxo-3,4-dihydroisoquinolin-2(1H)-yl)-6-ethylquinoline-8-carboxylate]: the GI50 was < 20 nM.
For `CCc1cc(C(=O)O)c2nccc(N3CCc4c(cc(Cn5ccnc5)cc4-c4cn(C)nc4C(F)(F)F)C3=O)c2c1` [Example 92, 4-(7-((1H-imidazol-1-yl)methyl)-5-(1-methyl-3-(trifluoromethyl)-1H-pyrazol-4-yl)-1-oxo-3,4-dihydroisoquinolin-2(1H)-yl)-6-ethylquinoline-8-carboxylic acid] the value was 388 nM; for `CCc1cc(-c2cccn2C)c2nccc(N3CCc4c(cc(Cn5ccnc5)cc4-c4cn(C)nc4C(F)(F)F)C3=O)c2c1` [Example 97, 7-((1H-Imidazol-1-yl)methyl)-2-(6-ethyl-8-(1-methyl-1H-pyrrol-2-yl)quinolin-4-yl)-5-(1-methyl-3-(trifluoromethyl)-1H-pyrazol-4-yl)-3,4-dihydroisoquinolin-1(2H)-one], 83 nM.
For `Cc1cc(N2CCN(C)CC2)c2cncc(N3CCc4c(cc(Cn5ccnc5)cc4-c4cn(C)nc4C(F)(F)F)C3=O)c2c1` [Example 100, 7-((1H-Imidazol-1-yl)methyl)-6′-methyl-5-(1-methyl-3-(trifluoromethyl)-1H-pyrazol-4-yl)-8′-(4-methylpiperazin-1-yl)-3,4-dihydro-1H-[2,4′-biisoquinolin]-1-one] the value was < 20 nM; for `COc1cc(N2CCN(C)CC2)c2nc(C)cc(N3CCc4c(cc(Cn5ccnc5)cc4-c4cn(C)nc4C(F)(F)F)C3=O)c2c1` [Example 102, 7-((1H-Imidazol-1-yl)methyl)-2-(6-methoxy-2-methyl-8-(4-methylpiperazin-1-yl)quinolin-4-yl)-5-(1-methyl-3-(trifluoromethyl)-1H-pyrazol-4-yl)-3,4-dihydroisoquinolin-1(2H)-one], < 20 nM.
For `COc1cc(N2CCN(C)C(=O)C2)c2nc(C)cc(N3CCc4c(cc(Cn5ccnc5)cc4-c4cn(C)nc4C(F)(F)F)C3=O)c2c1` [Example 105, 7-((1H-Imidazol-1-yl)methyl)-2-(6-methoxy-2-methyl-8-(4-methyl-3-oxopiperazin-1-yl)quinolin-4-yl)-5-(1-methyl-3-(trifluoromethyl)-1H-pyrazol-4-yl)-3,4-dihydroisoquinolin-1(2H)-one] the value was < 20 nM; for `CCc1cc(N2CCN(C)C(=O)C2)c2nc(C)cc(N3CCc4c(cc(Cn5ccnc5)cc4-c4cn(C)nc4C(F)(F)F)C3=O)c2c1` [Example 111, 7-((1H-Imidazol-1-yl)methyl)-2-(6-ethyl-2-methyl-8-(4-methyl-3-oxopiperazin-1-yl)quinolin-4-yl)-5-(1-methyl-3-(trifluoromethyl)-1H-pyrazol-4-yl)-3,4-dihydroisoquinolin-1(2H)-one], < 20 nM; for `CCc1cc(N2CCN(C(C)C)CC2)c2nc(C)cc(N3CCc4c(cc(Cn5ccnc5)cc4-c4cn(C)nc4C(F)(F)F)C3=O)c2c1` [Example 137, 7-((1H-Imidazol-1-yl)methyl)-2-(6-ethyl-8-(4-isopropylpiperazin-1-yl)-2-methylquinolin-4-yl)-5-(1-methyl-3-(trifluoromethyl)-1H-pyrazol-4-yl)-3,4-dihydroisoquinolin-1(2H)-one], < 20 nM.
Consider `CCc1cc(N2CCOCC2)c2nc(C)cc(N3CCc4c(cc(Cn5ccnc5)cc4-c4cn(C)nc4C(F)(F)F)C3=O)c2c1` [Example 145, 7-((1H-Imidazol-1-yl)methyl)-2-(6-ethyl-2-methyl-8-morpholinoquinolin-4-yl)-5-(1-methyl-3-(trifluoromethyl)-1H-pyrazol-4-yl)-3,4-dihydroisoquinolin-1(2H)-one], for which the GI50 is 36 nM.
For `COc1cc(N2CCOCC2)c2nc(C)cc(N3CCc4c(cc(Cn5ccnc5)cc4-c4cn(C)nc4C(F)(F)F)C3=O)c2c1` [Example 146, 7-((1H-Imidazol-1-yl)methyl)-2-(6-methoxy-2-methyl-8-morpholinoquinolin-4-yl)-5-(1-methyl-3-(trifluoromethyl)-1H-pyrazol-4-yl)-3,4-dihydroisoquinolin-1(2H)-one] the value was 26 nM; for `CCc1cc(C2=CCN(C)CC2)c2nc(C)cc(N3CCc4c(cc(Cn5ccnc5)cc4-c4cn(C)nc4C(F)(F)F)C3=O)c2c1` [Example 147, 7-((1H-imidazol-1-yl)methyl)-2-(6-ethyl-2-methyl-8-(1-methyl-1,2,3,6-tetrahydropyridin-4-yl)quinolin-4-yl)-5-(1-methyl-3-(trifluoromethyl)-1H-pyrazol-4-yl)-3,4-dihydroisoquinolin-1(2H)-one], 43 nM.
